Measurements as given in ChEMBL document CHEMBL1201862, “PubChem BioAssay data set” (2004).
Calls of active or inactive are those of the source.

Columns and labels:
[1] = molecular target: T1, Short transient receptor potential channel 4 (Mus musculus, UniProt Q9QUQ5); test: mouse TRPC4 channel inhibitors, dose response, cell-based, HEK293 TRPC4/mu-opioid, Fluo-4 calcium (AID 434942); format: functional;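 also: potency of inhibitors blocking the TRPC4 calcium response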
T1 sequence (Q9QUQ5 whole entry): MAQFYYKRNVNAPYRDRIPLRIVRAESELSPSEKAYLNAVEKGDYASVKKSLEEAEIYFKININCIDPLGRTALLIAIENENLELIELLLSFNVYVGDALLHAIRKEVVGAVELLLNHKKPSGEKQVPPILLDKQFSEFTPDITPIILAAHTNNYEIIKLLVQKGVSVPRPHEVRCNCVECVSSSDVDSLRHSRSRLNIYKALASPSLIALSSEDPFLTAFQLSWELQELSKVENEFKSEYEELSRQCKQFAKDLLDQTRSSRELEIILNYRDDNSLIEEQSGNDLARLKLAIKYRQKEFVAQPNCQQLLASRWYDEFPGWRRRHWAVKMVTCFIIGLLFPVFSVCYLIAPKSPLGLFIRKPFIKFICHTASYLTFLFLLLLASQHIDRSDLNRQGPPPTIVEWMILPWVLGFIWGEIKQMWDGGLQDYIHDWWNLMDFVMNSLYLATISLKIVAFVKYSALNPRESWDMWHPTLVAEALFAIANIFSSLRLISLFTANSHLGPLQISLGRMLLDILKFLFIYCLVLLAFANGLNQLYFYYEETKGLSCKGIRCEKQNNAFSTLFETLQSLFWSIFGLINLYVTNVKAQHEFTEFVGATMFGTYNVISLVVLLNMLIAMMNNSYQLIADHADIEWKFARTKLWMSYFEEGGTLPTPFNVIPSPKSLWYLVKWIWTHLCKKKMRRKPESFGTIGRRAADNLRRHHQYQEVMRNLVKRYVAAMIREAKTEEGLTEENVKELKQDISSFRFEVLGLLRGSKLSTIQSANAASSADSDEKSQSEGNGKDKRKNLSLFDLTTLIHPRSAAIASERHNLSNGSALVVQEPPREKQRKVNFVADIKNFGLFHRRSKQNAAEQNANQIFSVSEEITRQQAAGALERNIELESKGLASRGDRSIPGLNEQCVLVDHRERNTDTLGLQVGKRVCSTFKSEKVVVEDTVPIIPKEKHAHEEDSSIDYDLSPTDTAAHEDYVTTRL

[2] = inhibitors of firefly luciferase expression or activity, dose response, H4 neuroglioma cells, luminescence (AID 1990); format: functional, cell-based
[3] = Luminescence Cell-Based Dose Response HTS to Identify Inhibitors of 5'UTR Stem-Loop Driven Prion Protein mRNA Translation in H4 Neuroglioblastoma Cells. [Related pubchem assays: 1827 (Project Summary), 1813 (Primary HTS)]; format: functional
[4] = inhibitors of SNCA 5'UTR-driven reporter translation, confirmation, H4 neuroglioma cells, luminescence (AID 1988); format: functional, cell-based
[5] = molecular target: T2, DNA repair and recombination protein RAD54-like (Homo sapiens, UniProt Q92698); test: inhibitors of human RAD54 branch migration, confirmation, biochemical, fluorescence, cherry-picked samples, dose series (AID 651657); format: functional
T2 sequence (Q92698 whole entry): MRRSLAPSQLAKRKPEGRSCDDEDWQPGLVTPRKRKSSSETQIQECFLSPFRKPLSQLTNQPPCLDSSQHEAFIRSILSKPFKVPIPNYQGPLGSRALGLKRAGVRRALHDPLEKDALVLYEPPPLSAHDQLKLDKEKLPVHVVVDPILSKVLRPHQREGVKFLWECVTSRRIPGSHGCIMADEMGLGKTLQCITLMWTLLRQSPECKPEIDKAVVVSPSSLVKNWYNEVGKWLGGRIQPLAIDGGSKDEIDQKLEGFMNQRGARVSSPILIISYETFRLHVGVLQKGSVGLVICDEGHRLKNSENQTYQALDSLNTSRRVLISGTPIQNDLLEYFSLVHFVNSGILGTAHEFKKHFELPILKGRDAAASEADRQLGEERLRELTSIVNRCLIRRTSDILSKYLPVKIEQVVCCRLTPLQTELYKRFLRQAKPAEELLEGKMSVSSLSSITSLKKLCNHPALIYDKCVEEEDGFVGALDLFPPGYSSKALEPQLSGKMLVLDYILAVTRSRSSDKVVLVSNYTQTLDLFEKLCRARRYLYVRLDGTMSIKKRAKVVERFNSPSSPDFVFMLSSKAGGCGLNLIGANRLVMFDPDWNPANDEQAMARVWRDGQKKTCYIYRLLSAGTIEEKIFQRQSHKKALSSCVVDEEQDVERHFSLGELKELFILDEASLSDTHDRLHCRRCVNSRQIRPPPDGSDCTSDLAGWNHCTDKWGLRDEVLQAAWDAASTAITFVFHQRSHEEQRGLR

Cytochrome P450 3A4 = Cytochrome P450 3A4 (Homo sapiens, UniProt P08684); details: Potency;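 also: confirmatory qHTS run detecting inhibitors and substrates of CYP3A4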
INS1 = test: beta cell apoptosis inhibitors, cytokine rescue, dose response, luminescence, retest (AID 449756); format: functional, cell-based; details: Rattus norvegicus;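 also: cell death triggered by IL-1 beta plus TNF-alpha plus IFN-gamma mixture; protective hits raise ATP signal compared with cytokine alone wells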
[6] = intracellular Trypanosoma cruzi inhibitors in host cells – cell-based, plate reader, cherry-pick samples, set 3, dose response (AID 651818); format: functional;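 also: compounds incubated with infected cells for about four days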
[7] = ZM109 Env clade C HIV-1 fusion inhibitors, dose response, HeLa effector, CEM target cells, luciferase, cherry-pick (AID 652058); format: functional, cell-based
BJ [8] = test: cytotoxicity toward BJ-TERT fibroblasts, dose response, cell-based, RAS-independent, luminescence (AID 1933); format: functional; details: Homo sapiens
BJ [9] = test: cells; format: functional, cell-based, Homo sapiens; details: Homo sapiens, BJ
BJ [10] = test: cytotoxicity toward BJ-TERT-LT-ST fibroblasts, dose response, cell-based, RAS-independent, luminescence (AID 1935); format: functional; details: Homo sapiens;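 also: BJ fibroblasts immortalized with TERT plus LT and ST oncogenes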
[11] = cytotoxicity toward DRD oncogenic fibroblasts, dose response, cell-based, non-viral oncogenic, luminescence (AID 1934); format: functional; details: Homo sapiens
Cytochrome P450 2C19 = Cytochrome P450 2C19 (Homo sapiens, UniProt P33261); test: Cytochrome panel assay with activity outcomes. Panel member name: p450-cyp2c19 Compounds with AC50 equal or less than 10 uM are considered active; format: functional; details: read-out: AC50
[12] = molecular target: T1, Short transient receptor potential channel 4; test: mouse TRPC4 channel activators, dose response, cell-based, HEK293 TRPC4/mu-opioid, Fluo-4 calcium (AID 434937); format: functional
[13] = molecular target: T3, Replicative DNA helicase DnaB (Mycobacterium tuberculosis, UniProt P9WMR3); test: DnaB intein splicing inhibitors, dose response, biochemical, cell-free fluorescence (AID 449749); format: functional
T3 sequence (P9WMR3 whole entry): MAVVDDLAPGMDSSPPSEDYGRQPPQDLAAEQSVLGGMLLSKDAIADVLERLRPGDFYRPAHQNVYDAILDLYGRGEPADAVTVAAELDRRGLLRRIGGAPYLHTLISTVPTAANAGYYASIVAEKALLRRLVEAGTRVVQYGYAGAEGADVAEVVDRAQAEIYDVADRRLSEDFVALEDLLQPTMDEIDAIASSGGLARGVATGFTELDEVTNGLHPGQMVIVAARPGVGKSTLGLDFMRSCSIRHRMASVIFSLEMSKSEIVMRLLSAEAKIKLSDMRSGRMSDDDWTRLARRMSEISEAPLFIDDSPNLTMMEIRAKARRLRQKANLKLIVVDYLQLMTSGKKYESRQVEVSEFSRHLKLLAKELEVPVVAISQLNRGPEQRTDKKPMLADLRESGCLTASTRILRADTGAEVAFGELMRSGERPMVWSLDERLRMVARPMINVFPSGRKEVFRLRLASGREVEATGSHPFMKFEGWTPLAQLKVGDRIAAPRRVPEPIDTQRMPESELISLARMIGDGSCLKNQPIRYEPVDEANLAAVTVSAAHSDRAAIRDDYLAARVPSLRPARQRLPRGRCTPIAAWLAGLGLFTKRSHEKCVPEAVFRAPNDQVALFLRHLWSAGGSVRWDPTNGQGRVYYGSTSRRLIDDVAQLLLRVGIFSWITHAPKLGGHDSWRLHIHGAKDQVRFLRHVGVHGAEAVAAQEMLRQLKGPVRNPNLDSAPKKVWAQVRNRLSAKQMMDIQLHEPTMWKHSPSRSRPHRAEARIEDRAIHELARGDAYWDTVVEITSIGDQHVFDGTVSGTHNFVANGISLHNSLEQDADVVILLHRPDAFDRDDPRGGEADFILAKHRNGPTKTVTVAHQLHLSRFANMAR

Protein RecA = molecular target: T4, Protein RecA (Mycobacterium tuberculosis, UniProt P9WHJ3); test: Fluorescence Cell-Free Homogeneous Dose Retest to Identify Inhibitors of RecA-Intein Splicing Activity. [Related pubchem assays (depositor defined):AID2097, AID2223, AID489010, AID492950]; format: functional
T4 sequence (P9WHJ3 whole entry): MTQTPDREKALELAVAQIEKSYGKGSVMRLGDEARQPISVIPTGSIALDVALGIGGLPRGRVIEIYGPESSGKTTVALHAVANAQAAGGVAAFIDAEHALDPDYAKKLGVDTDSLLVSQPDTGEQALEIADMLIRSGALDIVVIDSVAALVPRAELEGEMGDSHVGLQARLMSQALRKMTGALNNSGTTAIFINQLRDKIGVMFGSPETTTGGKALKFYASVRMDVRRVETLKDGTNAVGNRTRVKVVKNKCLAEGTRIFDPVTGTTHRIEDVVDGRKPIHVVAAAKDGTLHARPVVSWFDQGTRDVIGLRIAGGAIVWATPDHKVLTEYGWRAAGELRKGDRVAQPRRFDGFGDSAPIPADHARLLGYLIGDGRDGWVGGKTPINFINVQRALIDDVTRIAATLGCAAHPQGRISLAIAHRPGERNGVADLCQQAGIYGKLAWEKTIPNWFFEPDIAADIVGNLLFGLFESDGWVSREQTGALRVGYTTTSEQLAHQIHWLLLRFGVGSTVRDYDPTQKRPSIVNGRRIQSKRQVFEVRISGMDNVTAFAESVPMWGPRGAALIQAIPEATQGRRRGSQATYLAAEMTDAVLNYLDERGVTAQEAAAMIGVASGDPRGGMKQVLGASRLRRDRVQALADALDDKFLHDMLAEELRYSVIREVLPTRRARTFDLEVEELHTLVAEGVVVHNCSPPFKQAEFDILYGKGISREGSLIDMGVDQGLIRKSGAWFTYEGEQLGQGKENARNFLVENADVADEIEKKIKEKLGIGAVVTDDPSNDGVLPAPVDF

Cytochrome P450 3A4, sequence (P08684 whole entry): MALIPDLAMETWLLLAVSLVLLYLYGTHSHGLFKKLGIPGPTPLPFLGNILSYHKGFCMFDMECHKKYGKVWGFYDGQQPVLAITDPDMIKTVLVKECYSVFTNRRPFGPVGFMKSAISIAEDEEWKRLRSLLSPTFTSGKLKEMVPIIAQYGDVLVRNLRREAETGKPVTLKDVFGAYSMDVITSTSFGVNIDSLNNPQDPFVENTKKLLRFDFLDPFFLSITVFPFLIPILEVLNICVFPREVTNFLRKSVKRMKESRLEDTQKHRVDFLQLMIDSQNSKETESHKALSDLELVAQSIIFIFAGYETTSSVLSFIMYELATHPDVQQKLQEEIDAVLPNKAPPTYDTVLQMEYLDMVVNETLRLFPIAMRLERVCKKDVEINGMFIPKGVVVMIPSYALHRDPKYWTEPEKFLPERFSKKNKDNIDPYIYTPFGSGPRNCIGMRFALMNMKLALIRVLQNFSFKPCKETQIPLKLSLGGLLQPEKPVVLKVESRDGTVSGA
Cytochrome P450 2C19, sequence (P33261 whole entry): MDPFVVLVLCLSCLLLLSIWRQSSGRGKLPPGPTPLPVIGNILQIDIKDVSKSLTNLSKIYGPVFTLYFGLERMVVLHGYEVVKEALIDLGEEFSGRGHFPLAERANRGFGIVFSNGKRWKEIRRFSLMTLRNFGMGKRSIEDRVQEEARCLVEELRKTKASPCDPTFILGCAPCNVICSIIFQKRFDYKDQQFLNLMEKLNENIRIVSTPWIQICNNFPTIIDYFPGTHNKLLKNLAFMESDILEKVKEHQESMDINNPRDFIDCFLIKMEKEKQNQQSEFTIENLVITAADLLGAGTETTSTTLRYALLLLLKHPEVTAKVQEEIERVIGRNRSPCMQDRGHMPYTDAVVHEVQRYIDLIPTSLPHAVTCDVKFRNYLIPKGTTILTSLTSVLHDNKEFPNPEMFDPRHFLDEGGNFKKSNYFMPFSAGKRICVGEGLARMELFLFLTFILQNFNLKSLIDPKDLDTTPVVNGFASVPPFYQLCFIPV

Nc1cc(N2CCCCC2)c([N+](=O)[O-])cc1Cl
EC50 [1]: 5.31 µM (active)

COc1ccc(C(=O)CN2CCN(CCN3C(=O)c4cccc5cccc(c45)C3=O)CC2)cc1
EC50 [2]: 13.4 µM (active) | EC50 [3]: > 120 µM (not active) | EC50 [4]: 15.3 µM (active) | AC50 [5]: 8.03 µM (active)

CC1(C)C(O)C=C[C@@]2(C)C1CC(=O)O[C@@]1(C)C3=CC(=O)OC(c4ccoc4)[C@]3(C)CCC21 (stereo not given in full)
AC50 (Cytochrome P450 3A4): 2 µM (inconclusive)

COC(=O)C/N=C1/OC(=O)N2C(=O)C3=C4[C@@H](C[C@H]5C(=O)N(c6ccccc6)C(=O)[C@H]5[C@H]4[C@@]12Cc1ccccc1)[C@H]1C(=O)N(c2ccccc2)C(=O)[C@H]1[C@H]3C
AC50 (Cytochrome P450 3A4): 6.31 µM (inconclusive)

Cc1ccn2c(CNCCCn3cccn3)c(C(=O)N3CCCCCC3)nc2c1
EC50 [1]: 2.11 µM (active)

FC(F)(F)c1ccc(CN2C[C@@H]3C(c4ccc(C(F)(F)F)cc4)C4(c5cccnc5)CC3(C4)[C@H]2c2ccccc2)cc1 (stereo not given in full)
AC50 (INS1): 6.2 µM (active) | AC50 (Cytochrome P450 3A4): 31.6 µM (inconclusive)

Cc1cccc(CN2CCCC(C(=O)Nc3ccccc3Oc3cccnc3)C2)c1 (stereo not given)
EC50 [1]: 4.22 µM (active)

Cc1ccc(S(=O)(=O)Nc2ccc3c(c2)CC(=O)N([C@H](C)CO)C[C@@H](C)[C@@H](CN(C)S(=O)(=O)c2ccccc2)O3)cc1
AC50 [6]: 2.27 µM (active)

Cc1cc(Nc2ccc3c(c2)OCCO3)c2cccc(C)c2n1
AC50 [5]: 13.9 µM (active)

CCCCCN1C2=NCCN2c2ccccc21
EC50 [1]: 0.841 µM (active)

Cc1ccc(N(CC(=O)NC2CCCC2)C(=O)CNC(=O)c2cccs2)cc1F
EC50 [1]: 5.96 µM (active)

C[C@@H]1CN([C@H](C)CO)C(=O)c2cccc(NC(=O)CCCCCC(=O)Nc3ccccc3N)c2O[C@H]1CN(C)Cc1ccc(-c2ccccc2)cc1
AC50 [6]: 2.18 µM (active)

C[C@@H]1CN([C@H](C)CO)C(=O)c2cccc(NC(=O)C3CCCCC3)c2O[C@H]1CN(C)Cc1ccc(C(F)(F)F)cc1
AC50 [6]: 2.83 µM (active)

C[C@@H]1CN([C@@H](C)CO)C(=O)c2cc(NS(=O)(=O)c3ccccc3)ccc2O[C@H]1CN(C)Cc1ccc(C(=O)Nc2ccccc2N)cc1
AC50 [6]: 4.83 µM (active)

Cc1nc2ccccc2c2oc(C(=O)NCCN3CCN(C)CC3)cc12
AC50 [5]: 39.9 µM (active)

CCCn1c(-c2ccc(F)cc2)nc2c(NCCCN(CCO)CCO)nc(C)nc21
AC50 (Cytochrome P450 3A4): 15.8 µM (inconclusive)

COc1cccc(S(=O)(=O)N[C@@H]2CC[C@H](CCN)O[C@H]2CO)c1
AC50 [7]: 1.26 µM (active)

COc1ccc(-c2nc(-c3cccc(C)c3)nc(N3CCN(C)CC3)c2C#N)cc1
EC50 (BJ [8]): 16.5 µM (inconclusive) | EC50 (BJ [9]): 23.3 µM (active) | EC50 (BJ [10]): > 150 µM (not active) | EC50 [11]: 14.8 µM (inconclusive) | AC50 (Cytochrome P450 2C19): 20 µM (inconclusive)

CCN(CC)CCN=C(S)Nc1ccc2nc(N3CCN(CC)CC3)cc(C)c2c1
AC50 [5]: 15.3 µM (active)

CC(=O)OCC1OC(Oc2cc(OC(C)=O)c3c(=O)cc(-c4ccc(OC(C)=O)cc4)oc3c2)[C@@H](OC(C)=O)C(OC(C)=O)C1OC(C)=O (stereo not given in full)
AC50 (Cytochrome P450 3A4): 10 µM (inconclusive)

CCOC(=O)C1(CC2CC2)CCN(Cc2c[nH]nc2-c2ccccc2)CC1
EC50 [1]: 0.944 µM (active) | EC50 [12]: 1.33 µM (active)

CCCc1nc(C(C)(C)O)c(C(=O)OCc2oc(=O)oc2C)n1Cc1ccc(-c2ccccc2-c2nnn[nH]2)cc1 [OLMESARTAN MEDOXOMIL]
AC50 (Cytochrome P450 3A4): 25.1 µM (inconclusive)

Cc1nn(C(=O)CNS(=O)(=O)c2ccccc2)c(C)c1Sc1ccc(Cl)cc1
EC50 [1]: 1.33 µM (active) | AC50 [13]: 4.2 µM (active) | EC50 (Protein RecA): 17.2 µM (active)

CCCCNc1nc(C)nc2c1nc(-c1ccccc1)n2CC1CCN(C)CC1
AC50 (Cytochrome P450 3A4): 15.8 µM (inconclusive)
